# Patent US8569511B2, “Substituted 3-(1H-benzo[d]imidazol-2-yl)-1H-indazole analogs as inhibitors of the PDK1 kinase” (University of Utah Research Foundation, priority 2011, dated 2013)
# Like-named read-outs stand apart in the source and are kept apart here.
# Key:
# AN3-CA cells [1] = experiment: Mouse subcutaneous xenograft tumor model, tumor volume; format: in vivo, athymic nude mice; conditions: 50 mg/kg IP, daily Monday through Friday for two weeks
# Protocol: The in vivo effects of compounds were determined in a mouse subcutaneous xenograft tumor model wherein AN3-CA cells were implanted subcutaneously into the hind flank of athymic nude mice. Briefly, seven-week-old mice were injected with 2×10^6 AN3-CA cells on the right hind flank. […] The vehicle for these studies was 20% DMSO, 20% cremophor, and 60% water. The test compound was administered on daily schedule (Monday through Friday) for two weeks at a concentration of 50 mg/kg by intraperitoneal (“IP”) injection. The mice were sacrificed and the tumors were excised for western blot analysis. Tumor volume was determined using the formula L×W2×0.5, where L is the longest length, and W is the shortest length. Tumor volume and body weight was measured twice a week.
# The study was carried out as described above for 2,2-difluoro-N-(3-(5-morpholino-1H-benzo[d]imidazol-2-yl)-1H-indazol-5-yl)cyclopropanecarboxamide, except that the test compound used was 2,2-difluoro-N-(3-(5-(2-methylmorpholino)-1H-benzo[d]imidazol-2-yl)-1H-indazol-5-yl)cyclopropanecarboxamide. Data are shown in FIGS. 10A and 10B for the effect of the compound on tumor volume and body weight, respectively.
# [2] = Pharmacokinetics in mice (iv and po); format: in vivo; conditions: for Vd: read-out: Vss
# Protocol: Pharmacokinetic parameters were determined by dosing mice by oral (“po”) and intravenous (“iv”) administration of two representative disclosed compounds.
# The vehicle was 1% DMSO, 10% ethanol, 35% PEG 400, and the balance H2O. Blood was collected (about 50 μl per individual animal) into heparin-containing collection tubes, and cells were removed by centrifugation. The concentration of compound was determined at the indicated time points for each sample using mass spectrometry. […] PK parameters were calculated using WinNonLin (Pharsight Products, Saint Louis, Mo.). […] The level detected at 0.08 hr was 9 ng/ml±5.0 ng/ml.
# Vehicle, sample collection and analysis is as described above.
# PDK1 [3] = target: T1, PDK1 (Homo sapiens (Human), UniProt O15530); experiment: PDK1 fluorometric activity assay performed by Life Technologies; format: biochemical; conditions: for IC50: fluorometric assay performed by Life Technologies (Table IV), read-out: PDK1 Kinase assays (IC50)
# Protocol: PDK1 biochemical activity was measured by a fluorometric assay performed by Life Technologies (Grand Island, N.Y.). The assay conditions for PDK1 are as follows. The 2×PDK1/Ser/Thr-07 mixture is prepared in 50 mM Tris pH 8.5, 0.01% BRIJ-35, 10 mM MgCl2, 1 mM EGTA, 0.02% NaN3.
# The kinase specificity was measured using fluorometric assays performed by Life Technologies (Grand Island, N.Y.). Assay conditions vary for each kinase and are available from Life Technologies, Grand Island, NY. For example, the assay conditions for PDK1 are as follows. The 2×PDK1/Ser/Thr-07 mixture is prepared in 50 mM Tris pH 8.5, 0.01% BRIJ-35, 10 mM MgCl2, 1 mM EGTA, 0.02% NaN3.
# AN3-CA cells [4] = experiment: Cell viability assay (ATP-lite); format: cell-based
# Protocol: AN3-CA (PTEN-deficient), RL95-2 (PTEN-deficient), and HEC-1A (PTEN-wild type) cells were plated in 45 μl of RPMI-1640 media supplemented with 10% FBS and 1% Pen/Strep at a density of 1000 cells per well in white 384-well plates. Cells were allowed to attach by incubation overnight at 37° C. and 5% CO2. Test compounds were diluted to 10× concentrations in RPMI-1640 media (containing 3% DMSO) and 5 μl 1 of these dilutions were added in triplicate to the appropriate wells containing the cells. The plates containing the drug-treated cells and appropriate controls were incubated for 96 hours. At the end of the incubation, 40 μl of ATP-lite (PerkinElmer, Inc., Waltham, Massachussetts) reagent were added to each well and luminescence signal was measured on an EnVision microplate reader.
# Alternatively, AN3-CA, RL95-2, HEC-1A endometrial cancer cell lines were plated at a density of 2000 cells per well in a 96 well culture plate in 45 μl of cell culture media and incubated overnight. The following day, test compounds were added to the cells in 5 μl of serum-free media to generate final concentrations of 10, 3, 1, 0.3, 0.1, 0.03, 0.01, or 0.003 μM. Vehicle treated controls were also included and each condition was applied in quadruplicate. Following 96 hours of incubation, 35 μL of ATP-lite (PerkinElmer) reagent was added each well and allowed to react for 10 minutes. Plate was read on a Envision 2104 MultiLabel reader (PerkinElmer).
# (§1) IC50 values are determined using GraphPad Prism 5 software. The data were entered as an X-Y plot into the software as percent inhibition for each concentration of the drug. The concentration values of the drug were log transformed and the nonlinear regression was carried out using the “sigmoidal dose-response (variable slope)” option within the GraphPad software to model the data and calculate IC50 values.
# PDK1 [5] = target: T1, PDK1; experiment: Time resolved-FRET LanthaScreen Kinase Binding Assay
# Source text: Binding of the tracer to the kinase is detected using a europium-labeled anti-tag antibody, which binds to the kinase of interest. […] Binding of an inhibitor to the kinase competes for binding with the tracer, resulting in a loss of FRET.
# Activity of compounds was routinely assessed using a secondary assay as described herein. The secondary assay was a time resolved-FRET LanthaScreen Kinase Binding Assay (Invitrogen Corporation, Carlsbad, Calif.). This assay evaluates the ability of the test compound to compete with a fluorescently-labeled tracer molecule to bind in the ATP pocket of a kinase. The assay signal is generated when a Europium-conjugated anti-His tag antibody (Invitrogen) bound to the His-tagged kinase produces a TR-FRET signal with the tracer molecule bound in the ATP pocket of the kinase. […] After 60 minutes of incubation at room temperature, the TR-FRET signal was measured on an EnVision microplate reader.
# as §1
# [6] = mouse, plasma, po (Table VIII, dose not given)
# [7] = Homo sapiens, AN3-CA, AN3-CA (PTEN and PIK3R1 mutations), read-out: Cell Viability IC50 AN3-CA
# [8] = TR-FRET Lanthascreen Kinase Binding Assay, read-out: PDK1 Kinase assays (IC50, μM) Binding Assay
# [9] = tested in triplicate, FIG. 5, read-out: IC50 in PDK1 time resolved-FRET LanthaScreen Kinase Binding Assay
# T1 sequence (O15530 whole entry): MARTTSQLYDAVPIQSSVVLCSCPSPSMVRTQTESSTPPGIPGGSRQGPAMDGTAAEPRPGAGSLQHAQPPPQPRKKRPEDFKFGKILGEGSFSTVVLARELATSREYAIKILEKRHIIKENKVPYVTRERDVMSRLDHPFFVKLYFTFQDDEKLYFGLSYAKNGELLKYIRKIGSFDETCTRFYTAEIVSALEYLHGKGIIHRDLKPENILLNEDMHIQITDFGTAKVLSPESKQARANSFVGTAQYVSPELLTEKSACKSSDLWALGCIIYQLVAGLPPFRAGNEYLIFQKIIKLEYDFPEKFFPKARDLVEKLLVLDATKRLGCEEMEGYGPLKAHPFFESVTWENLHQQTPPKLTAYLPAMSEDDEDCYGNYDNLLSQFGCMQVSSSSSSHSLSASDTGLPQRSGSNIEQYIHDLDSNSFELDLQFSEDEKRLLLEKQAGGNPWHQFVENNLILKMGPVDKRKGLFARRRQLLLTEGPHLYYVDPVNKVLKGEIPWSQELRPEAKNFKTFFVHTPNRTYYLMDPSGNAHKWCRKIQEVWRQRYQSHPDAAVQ
Compound,Effect on tumor burden (tumor volume) compared to the vehicle control (AN3-CA cells [1]),"AUC(0-t) ([2]; mouse, plasma, iv, 5.0 mg/kg)","Cmax ([2]; mouse, plasma, iv, 5.0 mg/kg)","Tmax ([2]; mouse, plasma, iv, 5.0 mg/kg)","clearance ([2]; mouse, plasma, iv, 5.0 mg/kg)","half-life ([2]; mouse, plasma, iv, 5.0 mg/kg)","Vd ([2]; mouse, plasma, iv, 5.0 mg/kg)",IC50 (PDK1 [3]),IC50 (AN3-CA cells [4]; [7]),IC50 (PDK1 [5]; [8]),IC50 (PDK1 [5]; [9]),further results
"O=C(Nc1ccc2[nH]nc(-c3nc4ccc(N5CCOCC5)cc4[nH]3)c2c1)C1CC1(F)F (centres unmarked) [Compound 1, 2,2-difluoro-N-(3-(5-morpholino-1H-benzo[d]imidazol-2-yl)-1H-indazol-5-yl)cyclopropanecarboxamide]",modest effect on tumor burden,516 ng·h/mL,1840 ng/mL,4.8 min,161 mL/min/kg,24 min,1.6 L/kg,80 nM,27 nM,0.08 µM,0.08 µM,"Cmax [2, 6]: 9 ng/mL; Tmax [2, 6]: 15 min; concentration at 0.08 hr ([2]; mouse, plasma, po, at 0.08 hr, read-out: Level detected after oral administration): 9 ng/mL; Level after oral administration (in words) ([2]; po, after 0.08 hr): below the limit of detection; Kinase profiling activity against PDK1 (in words) (PDK1 [3]; profiling at 500 nM, FIG. 8): good activity; Potency in cell viability assay, AN3-CA (in words) (AN3-CA cells [4]; FIG. 6): most potent; IC50 (AN3-CA cells [4]; Homo sapiens, AN3-CA, Table VI panel, mutation PTEN, PIK3R1, read-out: IC50 cell viability, AN3-CA): 48 nM; IC50 (AN3-CA cells [4]; Homo sapiens, AN3-CA, read-out: IC50 cell viability, AN3-CA cells): 27 nM"
"CC1CN(c2ccc3nc(-c4n[nH]c5ccc(NC(=O)C6CC6(F)F)cc45)[nH]c3c2)CCO1 (centres unmarked) [Compound 2, 2,2-difluoro-N-(3-(5-(2-methylmorpholino)-1H-benzo[d]imidazol-2-yl)-1H-indazol-5-yl)cyclopropanecarboxamide]",profound and significant effect on tumor burden,1280 ng·h/mL,4530 ng/mL,4.8 min,65 mL/min/kg,24 min,0.63 L/kg,94 nM,< 30 nM,0.094 µM,0.094 µM,"AUC(0-t) ([2]; mouse, plasma, po, 30 mg/kg): 244 ng·h/mL; Cmax ([2]; mouse, plasma, po, 30 mg/kg): 53 ng/mL; Tmax ([2]; mouse, plasma, po, 30 mg/kg): 15 min; bioavailability ([2]; mouse, plasma, po, 30 mg/kg): 19%; IC50 (AN3-CA cells [4]; AN3-CA (PTEN and PIK3R1 mutations), listed as Test Compound 2, read-out: Cell Viability IC50 AN3-CA): 23 nM"
